Measured values reported in patent publication US8722123B2, “Antimicrobial composition and use as food treatment” (priority 2008, dated 2014).
Marks after values point to notes of the source that are not given here.

How the values were obtained:
[1] = system: S. typhimurium DT 104 on alfalfa seeds; experiment: S. typhimurium DT 104 inactivation on alfalfa seeds; format: cell-based, Salmonella typhimurium DT104; set-up: key to S. typhimurium DT 104 counts on seeds: +: Below the minimum detection level by direct plating (<1.7 log CFU/ml), but positive by enrichment culture.; −: Negative by direct plating and enrichment culture; settings: for S. typhimurium DT 104 counts on seeds: alfalfa seeds inoculated with 10^8 CFU/g
[2] = system: alfalfa seed; experiment: Seed germination percentage; settings: treated for 1 hour at 21° C.
Experimental: To determine the germination percentage, treated and control seeds (5 gram per replicate) were placed on the surface of a plastic tray. A second tray containing 200 ml of sterile deionized water was placed with tray with seeds and water dropped into lower tray to maintain uniform moisture. The seeds were incubated at approximately 22° C. for 72 h.

[Ca+2].[O-]Cl.[O-]Cl [20,000 ppm, Ca(OCl)2, pH 11.4, calcium hypochlorite]
S. typhimurium DT 104 counts on seeds ([1]; dried 4 h at 21° C., 0 min of exposure): +^b (Below the minimum detection level by direct plating (<1.7 log CFU/ml), but positive by enrichment culture.) | S. typhimurium DT 104 counts on seeds ([1]; dried 4 h at 21° C., 1 min of exposure): −^c | S. typhimurium DT 104 counts on seeds ([1]; dried 4 h at 21° C., 2 min of exposure): − | S. typhimurium DT 104 counts on seeds ([1]; dried 4 h at 21° C., 5 min of exposure): − | S. typhimurium DT 104 counts on seeds ([1]; dried 4 h at 21° C., 10 min of exposure): − | S. typhimurium DT 104 counts on seeds ([1]; dried 4 h at 21° C., 20 min of exposure): − | S. typhimurium DT 104 counts on seeds ([1]; dried 4 h at 21° C., 30 min of exposure): − | S. typhimurium DT 104 counts on seeds ([1]; dried 4 h at 21° C., 60 min of exposure): − | S. typhimurium DT 104 counts on seeds ([1]; dried 24 h at 21° C., 0 min of exposure): + (Below the minimum detection level by direct plating (<1.7 log CFU/ml), but positive by enrichment culture.) | S. typhimurium DT 104 counts on seeds ([1]; dried 24 h at 21° C., 1 min of exposure): + (Below the minimum detection level by direct plating (<1.7 log CFU/ml), but positive by enrichment culture.) | S. typhimurium DT 104 counts on seeds ([1]; dried 24 h at 21° C., 2 min of exposure): − | S. typhimurium DT 104 counts on seeds ([1]; dried 24 h at 21° C., 5 min of exposure): − | S. typhimurium DT 104 counts on seeds ([1]; dried 24 h at 21° C., 10 min of exposure): − | S. typhimurium DT 104 counts on seeds ([1]; dried 24 h at 21° C., 20 min of exposure): − | S. typhimurium DT 104 counts on seeds ([1]; dried 24 h at 21° C., 30 min of exposure): − | S. typhimurium DT 104 counts on seeds ([1]; dried 24 h at 21° C., 60 min of exposure): − | S. typhimurium DT 104 counts on seeds ([1]; dried 48 h at 21° C., 0 min of exposure): + (Below the minimum detection level by direct plating (<1.7 log CFU/ml), but positive by enrichment culture.) | S. typhimurium DT 104 counts on seeds ([1]; dried 48 h at 21° C., 1 min of exposure): + (Below the minimum detection level by direct plating (<1.7 log CFU/ml), but positive by enrichment culture.) | S. typhimurium DT 104 counts on seeds ([1]; dried 48 h at 21° C., 2 min of exposure): − | S. typhimurium DT 104 counts on seeds ([1]; dried 48 h at 21° C., 5 min of exposure): − | S. typhimurium DT 104 counts on seeds ([1]; dried 48 h at 21° C., 10 min of exposure): + (Below the minimum detection level by direct plating (<1.7 log CFU/ml), but positive by enrichment culture.) | S. typhimurium DT 104 counts on seeds ([1]; dried 48 h at 21° C., 20 min of exposure): − | S. typhimurium DT 104 counts on seeds ([1]; dried 48 h at 21° C., 30 min of exposure): − | S. typhimurium DT 104 counts on seeds ([1]; dried 48 h at 21° C., 60 min of exposure): − | S. typhimurium DT 104 counts on seeds ([1]; dried 72 h at 21° C., 0 min of exposure): − | S. typhimurium DT 104 counts on seeds ([1]; dried 72 h at 21° C., 1 min of exposure): − | S. typhimurium DT 104 counts on seeds ([1]; dried 72 h at 21° C., 2 min of exposure): − | S. typhimurium DT 104 counts on seeds ([1]; dried 72 h at 21° C., 5 min of exposure): − | S. typhimurium DT 104 counts on seeds ([1]; dried 72 h at 21° C., 10 min of exposure): − | S. typhimurium DT 104 counts on seeds ([1]; dried 72 h at 21° C., 20 min of exposure): + (Below the minimum detection level by direct plating (<1.7 log CFU/ml), but positive by enrichment culture.) | S. typhimurium DT 104 counts on seeds ([1]; dried 72 h at 21° C., 30 min of exposure): + (Below the minimum detection level by direct plating (<1.7 log CFU/ml), but positive by enrichment culture.) | S. typhimurium DT 104 counts on seeds ([1]; dried 72 h at 21° C., 60 min of exposure): − | Salmonella level after treatment ([1]; seeds dried 24 h, 48 h, or 72 h, 5 min): undetectable by direct plating, but still detectable by enrichment culture | germination rate of alfalfa seed [2]: 47.3%
